The values below come from patent US9242960B2, “P38MAP kinase inhibitors” (Respivert Ltd., priority 2009, dated 2016).

SMILES strings stand for the structures.

The subject of assay [1] is neutrophil and macrophage accumulation into airways. Briefly: Cigarette smoke model. Conditions: (35 μl, bid, in). On the set-up: dose or concentration left out as unconfirmed. The class given is in vivo, A/J mice.
Procedure: A/J mice (males, 5 weeks old) were exposed to cigarette smoke (4% cigarette smoke, diluted with compressed air) for 30 min/day for 11 days using a Tobacco Smoke Inhalation Experiment System for small animals (Model SIS-CS; Sibata Scientific Technology, Tokyo, Japan). Test substances were given intra-nasally (35 μl of solution in 50% DMSO/PBS) and therapeutically twice daily for 3 days after the final cigarette smoke exposure. Twelve hours after the last dosing, animals were anesthetized, the trachea cannulated and bronchoalveolar lavage fluid (BALF) was collected. The numbers of alveolar macrophages and neutrophils were determined by FACS analysis (EPICS® ALTRA II, Beckman Coulter, Inc., Fullerton, Calif., USA) using anti-mouse MOMA2 antibody (macrophage) or anti-mouse 7/4 antibody (neutrophil).
Assay [2] relates to bronchoconstrictor response to ovalbumin challenge (sGaw). Briefly: Ovalbumin challenge/parainfluenza infection model. It counts as in vivo, guinea-pigs. Conditions: 1.5 mg per day nebulised, sensitized animals treated with PIV3 medium (initial studies).
Assay [3] concerns Human rhinovirus RV16 (HRV). Briefly: Rhinovirus-titre assay in MRC5 cells. The class given is cell-based. Conditions: concentration range up to 1.9 μM.
Procedure: All titrations were performed by infecting confluent Hela cell monolayers with serially diluted supernantant (10^−1 to 10^−5) and assessing cytopathetic effect by MTT assay 4 days after infection. The amount of virus required to infect 50% of Hela cells was calculated in each treatment as TCID50 U/mL. Compounds were added 24 and 2 hr before HRV infection and 1 hr after infection when non-infected HRV was washed out.
Assay [4] has as its system BEAS2B cells. Briefly: Rhinovirus-induced IL-8 release in BEAS2B cells. It counts as cell-based, human.
Assay [5] has as its system differentiated U937 cells. Briefly: LPS-induced IL-8 release in differentiated U937 cells. The class given is cell-based, human.
Procedure: U937 cells, human monocytic cell line, were differentiated to macrophage-type cells by incubation with phorbol myristate acetate (PMA; 100 ng/ml) for 48 to 72 hours. Cells were pre-incubated with final concentrations of compound for 2 hrs. Cells were then stimulated with 0.1 μg/ml of LPS (from E. Coli: O111:B4, Sigma) for 4 hrs, and the supernatant collected for determination of the IL-8 concentration by sandwich ELISA (Duo-set, R&D systems).
In assay [6] the test system is BEAS2B cells. Briefly: Poly I:C-induced ICAM-1 induction in BEAS2B cells. Conditions: at 10 ug/ml. The class given is cell-based, human.
Procedure: Poly I:C (1 ug/ml) (Invivogen Ltd., San Diego, Calif.) was transfected into BEAS2B cells (human bronchial epithelial cells, ATCC) with Oligofectamine (Invitrogen, Carlsbad, Calif.). Cells were pre-incubated with final concentrations of compound for 2 hrs. The level of ICAM1 expression on the cell surface was determined by cell-based ELISA. Briefly, at 18 hrs after poly I:C transfection, cells were fixed with 4% formaldehyde in PBS. After quenching endogenous peroxidase by adding 0.1% sodium azide and 1% hydrogen peroxide, cells were washed with wash-buffer (0.1% Tween in PBS: PBS-Tween). After blocking the wells with 5% milk in PBS-Tween for 1 hr, the cells were incubated with anti-human ICAM-1 antibody (Cell Signaling Technology, Danvers, Mass.) in 1% BSA PBS overnight at 4° C. Cells were washed with PBS-Tween and incubated with the secondary antibody (HRP-conjugated anti-rabbit IgG, Dako Ltd., Glostrup, Denmark).
Assay [7] has as its system BEAS2B cells. As to the kind of experiment: Rhinovirus-induced ICAM-1 expression in BEAS2B cells. It counts as cell-based, human.
For assay [8], the system named is differentiated U937 cells. Briefly: LPS-induced TNFα release in differentiated U937 cells. It counts as cell-based. Conditions: Homo sapiens, U-937, read-out: IC50 Values LPS-induced TNFα release d-U937 cells.
Procedure: (§1) U937 cells, human monocytic cell line, were differentiated to macrophage-type cells by incubation with phorbol myristate acetate (PMA; 100 ng/ml) for 48 to 72 hr. Where appropriate, cells were pre-incubated with final concentrations of compound for 2 hr. Cells were then stimulated with 0.1 μg/ml of LPS (from E. Coli: O111:B4, Sigma) for 4 hr, and the supernatant collected for determination of TNFα concentration by sandwich ELISA (Duo-set, R&D systems). […] THP-1, human monocytic cell line, was also used for this assay. THP-1 cells were stimulated with 3 μg/ml of LPS (from E. Coli: O111:B4, Sigma) for 4 hr, and the supernatant collected for determination of TNFα concentration.
Another assay deals with THP-1 cells. Briefly: LPS-induced TNFα release in THP-1 cells. It counts as cell-based. As to conditions: Homo sapiens, read-out: IC50 Values LPS-induced TNFα release THP1 cells.
The subject of the next assay is sputum macrophages. Briefly: Sputum macrophage assay (LPS-induced IL-8 release). The class given is cell-based, human.

Procedure for THP-1 cells: as §1

For the molecule `CCC(=O)O[C@]1(C(=O)SCF)[C@H](C)C[C@H]2[C@@H]3C[C@H](F)C4=CC(=O)C=C[C@]4(C)[C@@]3(F)[C@@H](O)C[C@@]21C` [fluticasone propionate], in assay [1], the “macrophage accumulation into airways” value was “did not inhibit” and the “neutrophil accumulation into airways” value is listed as “did not inhibit”. In addition, in [2], the “ovalbumin-mediated lung function changes” value is “inhibited”.

As for `Cc1ccc(-n2nc(C(C)(C)C)cc2NC(=O)Nc2ccc(OCCN3CCOCC3)c3ccccc23)cc1` [BIRB796], the “effect on viral replication” value in assay [3] is reported as “without effect”. Also, in the assay with BEAS2B cells [4], the “IC50 Values BEAS2B cells Rhinovirus-induced IL-8 release” value is “NSE @ 1.9 μM”. In addition, the “maximum inhibition of LPS-induced IL-8 release in differentiated U937 cells” value in assay [5] was 31%. Besides, the “effect on poly I:C induced ICAM1 expression in BEAS2B cells” value with BEAS2B cells [6] was “no effect”. In addition, the “IC50 Values BEAS2B cells Rhinovirus-induced ICAM expression” value in the assay on BEAS2B cells [7] is “NSE @ 1.9 μM”. Also, the figures for the IC50 (in [8]; with THP-1 cells) were 20 nM and 12 nM, respectively. Moreover, the “IC50 Values Sputum macrophages LPS-induced IL-8 release” value in the assay on sputum macrophages is listed as “NSE @ 19 μM”.

Broadly, the IC50 is the concentration that gives 50% inhibition.
